Consider two compounds from ChEMBL document CHEMBL4613244, “Absolute Configuration and Corrected NMR Assignment of 17-Hydroxycyclooctatin, a Fused 5-8-5 Tricyclic Diterpene” (J Nat Prod, 2020).

What all share (format): functional, cell-based
Experiment [1] has as its system MCF7. Put plainly: Anti-estrogenic activity in human MCF7 cells assessed as reduction in 17beta-estradiol-induced cell viability at 100 nM after 24 hrs by MTT assay.
The subject of experiment [2] is MCF7. Description: Antiproliferative activity against human MCF7 cells assessed as reduction in cell viability after 24 hrs by MTT assay. The conditions noted are these: MCF7, 24 h.
Experiment [3] relates to MCF7. Description: Anti-estrogenic activity in human MCF7 cells assessed as reduction in 17beta-estradiol-induced cell viability at 100 to 200 uM after 24 hrs by MTT assay.

The structures appear in SMILES notation. Active and inactive are the calls of the source. The rule behind the calls is not given here.

With `C[C@]12CC[C@@H]3c4ccc(O)cc4C[C@@H](CCCCCCCCC[S+]([O-])CCCC(F)(F)C(F)(F)F)[C@H]3[C@@H]1CC[C@@H]2O` (stereo partly drawn), the outcome with MCF7 [1] was Active.
Consider `C[C@H](CO)[C@H]1CC[C@]2(C)C[C@@H]3[C@H](CO)C[C@@H](O)[C@H]3[C@@](C)(O)C/C=C/12`, for which, in the experiment on MCF7 [2], the IC50 was determined as 567 µM. The outcome in the experiment with MCF7 [3] was Active.
